According to patent US8217000B2, “Method for elevating prolactin in mammals” (Cara Therapeutics, Inc., priority 2006, dated 2012):
Counter-ions that a name gives are not always drawn. Like-named read-outs stand apart in the source and are kept apart here. Non-standard residues stand in square brackets, D forms with d. Residues, ends and D or L forms follow the SMILES beside them. *: point of attachment. NH(4-picolyl) = c1cc(CN*)ccn1; dNle = CCCC[C@@H](N)C(=O)O

What was measured:
[1] = Urinary excretion of CR665 after single IV infusion in human subjects; type: in vivo; settings: for CL renal / dose excreted: human; for CL renal: urine and plasma, read-out: CLR 0-24 h; for dose excreted / Ae0-24 h: urine; for dose excreted: iv
Method: The lower limit of quantification was 1 ng/mL.
Urine was collected into standard weight polyethylene containers over the following time intervals: Pre dose (−24 to 0), 0 to 4, 4 to 8, 8 to 12, 12 to 24 and 24 to 48 hours after the start of the infusion. During each collection period, the containers were stored in a refrigerator at 2 to 8° C. The weight (g) of each collection was recorded prior to removal of two sub samples (each approximately 4 mL) into suitably labeled polypropylene containers, which were stored within 2 hours of collection, at approximately −20° C. Additional aliquots (1×100 mL per collection period) were stored for possible future analyses. Any remaining urine from post dose collection intervals was pooled with the rest of the urine collected during the 0 to 24 hour collection period, for analysis of creatinine clearance. A nominal value for specific gravity of 1.018 was used to calculate urine volume.

[2] = Safety and tolerability of ascending single IV doses in human subjects; type: in vivo
Excerpt: In each group, subjects received CR665 or placebo.
The condition of each subject was monitored throughout the study.
Subjects were also encouraged to spontaneously report adverse events occurring at any other time during the study. Any adverse events and remedial action required were to be recorded for each subject. The nature, time of onset, duration and severity were documented, together with the Project Physician's opinion of the relationship to drug administration.
The condition of the dosing cannula site for each subject was monitored for erythema, pruritus and swelling at the following times: Pre dose, 0.5, 1, 2 and 24 hours after the start of the infusion. Subjects were also encouraged to spontaneously report adverse events relating to the infusion site at any other time during the study. Any adverse events and observations relating to the infusion site and remedial action required were to be recorded for each subject. The nature, time of onset, duration, and severity were to be documented, together with the Project Physician's opinion of the relationship to drug administration.
Supine and standing blood pressure, supine pulse rate and oral body temperature were measured in duplicate at the following times: Day 1; Pre dose, 15 minutes (Part B only), 30 minutes, 55 minutes, 1.5, 2, 2.5, 3, 4, 8, 12, 24 and 48 hours after the start of the infusion (up to 24 hours only for Groups A1 to A4); and at Follow up visit. Supine vital signs only were measured during the infusion period. Pre dose blood pressure and pulse rate were measured in triplicate at approximately 2 minute intervals. The median value was used as the baseline value in the data analysis. All subsequent measurements were performed singly, but repeated in duplicate if outside the relevant clinical reference ranges. If repeated, the median of the three values were used in the data analysis. Blood pressure and pulse rate were measured using automated Critikon Dinamap™ PRO 400 monitors. Subjects were required to be supine for at least 5 minutes before blood pressure and pulse rate measurements. Standing blood pressure and pulse rate were then measured singly after the subject had been sitting for approximately 1 minute and then standing for approximately 2 minutes. Oral body temperature was measured singly using an Omron digital thermometer. To assess drug effects on cardiovascular function, a 12 lead resting ECG with a 10 second rhythm strip was recorded on a Marquette MAC5000 ECG machine at the following times, after the subject has been supine for at least 5 minutes: Day 1; Pre dose, 50 minutes, 2, 4, 8, 24 and 48 hours after the start of the infusion (up to 24 hours only for Groups A1 to A4); and at the follow up visit. The ECG machine computed the PR, QT and QTc intervals, QRS duration, and heart rate. The QT interval was corrected for heart rate (QTc) using Bazett's formula. For continuous ECG measurements, continuous cardiac Holter monitoring of each subject, using Reynolds Tracker II Holter monitors, was performed from 1 hour prior to until 4 hours after the start of the infusion. Blood and urine samples were collected, after at least a 6 hour fast, for clinical laboratory evaluations at the following times during the study: Pre dose and 24 hours after the start of the infusion; and at the follow up visit.
After collection of urine samples, following removal of the aliquots for drug assay and/or urinalysis, urine was pooled over the following time intervals: 24 to 0 hours and 0 to 24 hours after the start of the infusion. A 10 mL aliquot was removed from the each pooled collection for determination of urinary creatinine.
An assessment of fluid balance (made by comparison of volume of fluid consumed and volume of fluid excreted) was made over the following periods: 24 to 0 hours and 0 to 24 hours after the start of the infusion. During these periods, the volume of fluid consumed and the volume of urine excreted was recorded. […]

`CCCC[C@@H](NC(=O)[C@@H](Cc1ccccc1)NC(=O)[C@H](N)Cc1ccccc1)C(=O)N[C@H](CCCNC(=N)N)C(=O)NCc1ccncc1` [CR665, D-phenylalanyl-D-phenylalanyl-D-norleucyl-N-(4-pyridinylmethyl)-D-argininamide, acetate salt] (H-[dF][dF][dNle][dR]-{NH(4-picolyl)}) showed a CL renal ([1]; female, females, 0.06 mg/kg, 5-minute IV infusion, geometric mean) of 20.9 mL/min, a CL renal ([1]; female, females, 0.24 mg/kg, 1 hour IV infusion, geometric mean) of 16.8 mL/min and a dose excreted ([1]; female, 0.06 mg/kg, females, 0.06 mg/kg, 5-minute IV infusion, geometric mean, read-out: fe0-24 h) of 3.83%. The dose excreted ([1]; female, 0.06 mg/kg, females, 5-minute infusion, read-out: Fraction of unchanged drug excreted in the urine) was 3.8%, the dose excreted ([1]; female, 0.06 mg/kg, females, 5-minute infusion, read-out: fe0-24 h, geometric least squares mean) was 3.83% and the dose excreted ([1]; female, 0.24 mg/kg, females, 0.24 mg/kg, 1 hour IV infusion, geometric mean, read-out: fe0-24 h) was 3.02%. For the same compound, the dose excreted ([1]; female, 0.24 mg/kg, females, 1-hour infusion, read-out: fe0-24 h, geometric least squares mean) was 2.7%, the “fe0-24 h, ratio of geometric least squares means 5-minute:1-hour” value ([1]; females) was 1.42 and the Ae0-24 h ([1]; females, 0.06 mg/kg, 5-minute IV infusion, geometric mean) was 153 µg. The Ae0-24 h ([1]; females, 0.24 mg/kg, 1 hour IV infusion, geometric mean) was 446 µg, the CL renal ([1]; male, males, 0.03 mg/kg, 5-minute IV infusion, geometric mean) was 17.1 mL/min and the CL renal ([1]; male, males, 0.06 mg/kg, 5-minute IV infusion, geometric mean) was 18.4 mL/min. It also gave a CL renal ([1]; male, males, 0.09 mg/kg, 5-minute IV infusion, geometric mean) of 20.5 mL/min, a CL renal ([1]; male, males, 0.24 mg/kg, 1 hour IV infusion, geometric mean) of 22 mL/min and a dose excreted ([1]; male, 0.03 mg/kg, males, 0.03 mg/kg, 5-minute IV infusion, geometric mean, read-out: fe0-24 h) of 3.6%. The dose excreted ([1]; male, 0.06 mg/kg, males, 0.06 mg/kg, 5-minute IV infusion, geometric mean, read-out: fe0-24 h) was 3.33%, the dose excreted ([1]; male, 0.09 mg/kg, males, 0.09 mg/kg, 5-minute IV infusion, geometric mean, read-out: fe0-24 h) was 3.56% and the dose excreted ([1]; male, 0.24 mg/kg, males, 0.24 mg/kg, 1 hour IV infusion, geometric mean, read-out: fe0-24 h) was 3.5%. For the same compound, the dose excreted ([1]; male, males, 1-hour infusion, Parts A & B, read-out: fe0-24 h, geometric least squares mean) was 3.46%, the dose excreted ([1]; male, males, 5-minute infusion, Parts A & B, read-out: fe0-24 h, geometric least squares mean) was 3.48% and the dose excreted ([1]; male, males, all dose levels, 5-minute infusion, up to 24 hours post-dose, read-out: Fraction of the dose excreted in the urine as unchanged drug) was roughly 3.5%. The “fe0-24 h, ratio of geometric least squares means 5-minute:1-hour” value ([1]; males) was 1.01, the Ae0-24 h ([1]; males, 0.03 mg/kg, 5-minute IV infusion, geometric mean) was 70.0 µg and the Ae0-24 h ([1]; males, 0.06 mg/kg, 5-minute IV infusion, geometric mean) was 157 µg. For the same compound, the Ae0-24 h ([1]; males, 0.09 mg/kg, 5-minute IV infusion, geometric mean) was 262 µg, the Ae0-24 h ([1]; males, 0.24 mg/kg, 1 hour IV infusion, geometric mean) was 631 µg and the “Fluid balance (urine excreted-fluid consumed)” value ([2]; 0 to 24 hour after start of infusion) was “no apparent treatment or dose related trends”. The “12-lead ECG evaluations” value ([2]; Parts A and B) was “no treatment related trends, significant clinical changes, or abnormalities in the morphology of the 12 lead ECG”, the “Creatinine clearance estimated from serum creatinine” value ([2]; Parts A and B) was “no clinically important changes” and the “Supine and standing blood pressure, pulse rate, oral body temperature” value ([2]; Parts A and B) was “no treatment or dose related trends”. For the same compound, the “Severe or serious adverse events” value ([2]; all 54 subjects, all dose levels) was “no severe or serious adverse events”, the “QTc interval (Bazett's and Friedericia's corrected)” value ([2]; each dose level, male and female subjects) was “no evidence of prolongation of QTc interval” and the “CNS symptoms (hallucinations or dysphoria)” value ([2]; even at the highest dose levels) was “no signs of the more typical CNS symptoms”. For the same compound, the “Volume of urine excreted compared to placebo” value ([2]; first 4 hours after start of infusion, each dose level, male and female, Parts A and B) was “increase”, the “Clinical laboratory evaluations (serum biochemistry, hematology, urinalysis)” value ([2]; human, in vivo) was “no treatment related trends or significant clinical findings” and the Physical examination ([2]; human, in vivo) was “no treatment related findings”.
